Columns and labels:
Test in all cases: relative viability (nuclei count vs DMSO), 5 days (fraction); higher = more cells survive
[1] = compound: C1=CC2=C(C=C(C(=C2N=C1)O)N=NC3=CC4=C(C=C3)C=C(C=C4)S(=O)(=O)O)S(=O)(=O)O + Cc1cc(Nc2cc(N3CCN(C)CC3)nc(Sc3ccc(NC(=O)C4CC4)cc3)n2)n[nH]1 [Tozasertib] (partner 0.1 µM)
Outline: (§1)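 Lung cancer cell lines were pin-tool dosed in 1536-well plates on the day after seeding, with either a lone drug or a fixed anchor-drug dose plus five library-drug doses (not always all listed) in √10 steps. Nuclei were counted on 4× images after 5 days. Relative viability is the ratio of treated-well to vehicle-well nuclei counts, with each value a median of duplicate plates.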

[2] = compound: C1=CC2=C(C=C(C(=C2N=C1)O)N=NC3=CC4=C(C=C3)C=C(C=C4)S(=O)(=O)O)S(=O)(=O)O + CC(C)C[C@H](NC(=O)[C@H](Cc1ccccc1)NC(=O)c1cnccn1)B(O)O [Bortezomib] (partner 0.002 µM)
Outline: as §1

[3] = compound: C1=CC2=C(C=C(C(=C2N=C1)O)N=NC3=CC4=C(C=C3)C=C(C=C4)S(=O)(=O)O)S(=O)(=O)O + CS(=O)(=O)CCNCc1ccc(-c2ccc3ncnc(Nc4ccc(OCc5cccc(F)c5)c(Cl)c4)c3c2)o1 [Lapatinib] (partner 2 µM)
Outline: as §1

[4] = compound: C1=CC2=C(C=C(C(=C2N=C1)O)N=NC3=CC4=C(C=C3)C=C(C=C4)S(=O)(=O)O)S(=O)(=O)O + O=C(c1cc(Cc2n[nH]c(=O)c3ccccc23)ccc1F)N1CCN(C(=O)C2CC2)CC1 [Olaparib] (partner 8 µM)
Outline: as §1

Cell Line | relative viability ([1]; first compound 0.08 µM) | relative viability ([1]; first compound 0.253 µM) | relative viability ([1]; first compound 0.8 µM) | relative viability ([1]; first compound 2.53 µM) | relative viability ([1]; first compound 8 µM) | relative viability ([2]; first compound 0.08 µM) | relative viability ([2]; first compound 0.253 µM) | relative viability ([2]; first compound 0.8 µM) | relative viability ([2]; first compound 2.53 µM) | relative viability ([2]; first compound 8 µM) | relative viability ([3]; first compound 0.08 µM) | relative viability ([3]; first compound 0.253 µM) | relative viability ([3]; first compound 0.8 µM) | relative viability ([3]; first compound 2.53 µM) | relative viability ([3]; first compound 8 µM) | relative viability ([4]; first compound 0.08 µM) | relative viability ([4]; first compound 0.253 µM) | relative viability ([4]; first compound 0.8 µM) | relative viability ([4]; first compound 2.53 µM) | relative viability ([4]; first compound 8 µM)
HCC-827 | 0.448 | 0.397 | 0.418 | 0.448 | 0.432 | 1.06 | 0.95 | 0.948 | 1.02 | 1.03 | 0.19 | 0.159 | 0.185 | 0.189 | 0.188 | 0.68 | 0.524 | 0.647 | 0.568 | 0.687
SK-LU-1 | 0.32 | 0.286 | 0.303 | 0.331 | 0.336 | 1.05 | 0.942 | 0.963 | 1.1 | 0.99 | 1.06 | 0.88 | 0.943 | 0.881 | 0.959 | 0.603 | 0.475 | 0.399 | 0.567 | 0.512
NCI-H1975 | 0.772 | 0.753 | 0.754 | 0.736 | 0.686 | 0.389 | 0.385 | 0.377 | 0.327 | 0.42 | 1.08 | 0.883 | 0.833 | 0.987 | 0.861 | 0.868 | 0.854 | 0.772 | 0.795 | 0.824
NCI-H1651 | 0.742 | 0.727 | 0.657 | 0.764 | 0.562 | 0.942 | 0.903 | 0.894 | 0.963 | 0.755 | 0.764 | 0.865 | 0.781 | 0.911 | 0.964 | 0.187 | 0.176 | 0.196 | 0.208 | 0.181
LCLC-97TM1 | 0.279 | 0.203 | 0.196 | 0.338 | 0.221 | 0.815 | 0.492 | 0.525 | 0.753 | 0.395 |  | 0.665 |  | 0.835 | 1.04 | 0.41 | 0.38 | 0.432 | 0.338 | 0.32
NCI-H727 | 0.535 | 0.653 | 0.87 | 0.767 | 0.441 | 0.917 | 0.945 | 0.854 | 0.853 | 0.816 | 1.09 | 0.873 | 0.768 | 0.978 | 0.701 | 0.635 | 0.676 | 0.684 | 0.859 | 0.665
NCI-H1355 | 0.629 | 0.608 | 0.627 | 0.595 | 0.641 | 1.22 | 1.22 | 1.15 | 1.23 | 1.29 | 1.02 | 0.999 | 0.905 | 1.05 | 1.08 | 0.736 | 0.717 | 0.748 | 0.728 | 0.711
HOP-62 | 0.458 | 0.381 | 0.384 | 0.403 | 0.363 | 0.714 | 0.558 | 0.851 | 0.725 | 0.637 | 1.32 | 0.925 | 0.972 | 1.05 | 0.993 | 0.403 | 0.376 | 0.312 | 0.465 | 0.516
NCI-H2085 | 0.928 | 0.742 | 0.784 | 0.886 | 0.813 | 1.23 | 1.05 | 1.01 | 1.11 | 0.953 | 0.915 | 0.783 | 0.749 | 0.818 | 0.842 | 0.866 | 0.757 | 0.811 | 0.757 | 0.722

Source: the supplement of paper PMC10307832
